Usually melting point stands for the temperature, or range, at which the solid turns liquid.

Some results are limits rather than exact numbers.

From a melting point compilation (Tetko et al.; mined from patent text by program, amines drawn as free bases though some values may be those of a salt) come the findings set out here.

Consider `Cc1cccc(-c2nc3cccnn3c2-c2ccnc(NCCN3CCCCC3)c2)c1`, for which the melting point lay within 143 to 144 °C. Take `CCC(C)C(Cl)C(=O)Oc1ccc(C(=O)O)cc1` (stereo not drawn): the melting point fell in the range of 97 to 100 °C. Molecule `CCCc1c(S(=O)CCCOc2ccc(C(C)=O)c(OCCCC(=O)OCC)c2CCC)ccc(C(C)=O)c1O` (stereo not drawn) showed a melting point of 74 to 76 °C. The molecule `CC1(C)Oc2ccc(C(N)=O)cc2[C@H](NCCc2ccccc2)[C@H]1O` (relative stereo) gave a melting point of 162 °C. For the molecule `CCCCCCCCC(Sc1ccccn1)C(=O)Nc1cccc2cnccc12` (stereo not drawn), the melting point was in the range of 81 to 83 °C. The molecule `CCCCC(=O)NC(C(=O)OCc1ccccc1)C(C)C` (stereo not drawn) showed a melting point of 118 to 127 °C. `CCC(Cn1nccn1)n1nnc2cc3c(=O)n(C(C)Cn4ncnn4)nnc3cc2c1=O` (stereo not drawn) showed a melting point of 162 to 163 °C. On to `CC1=C(C(=O)Nc2cccc(C#N)c2)SCCO1`, for which the melting point lay within 119 to 121 °C. Turning to `COc1ccccc1NC(=O)c1ccc(C)cc1`, the melting point lay in the range of 72.5 to 74.5 °C. `CCOC(=O)c1c(-c2cc(C(C)(C)C)c(O)c(C(C)(C)C)c2)c2cc3c(cc2oc1=O)CCC3` gave a melting point of 208 to 209 °C.

Molecule `O=S(=O)(c1cccs1)c1ccc(O)c(Cl)c1Cl` came in with a melting point of 220 °C. In turn, `CS(=O)(=O)OCC1CCN(C(=O)OCc2ccccc2)CC1` showed a melting point of 72 to 74 °C. For `Cc1cc2cc(C3(O)CCN(C)CC3)ccc2o1`, the melting point was in the range of 118 to 120 °C. In the case of `CC(O)CNC1(F)C=CC(N)=C([N+](=O)[O-])C1` (stereo not drawn), the melting point stood at 97 °C.

Molecule `CCOC(=O)c1ccc(NCCCCCCCCCCCCCC[Si](C)(C)C)cc1` had a melting point of 91 to 92 °C. Molecule `O=C(OCC1CC1)c1ncn2c1[C@@H]1CCCN1C(=O)c1c-2ccc(Cl)c1Cl` showed a melting point of 185 to 186 °C.

`COc1ccnc2[nH]cc(-c3ccnc(N)n3)c12` had a melting point greater than 210 °C. As for `O=c1[nH]nc2n1-c1ccc(Cl)cc1C(c1ccccc1Cl)=CC2`, the melting point lay within 250 to 251 °C. Then `O=C1CN(c2ccccc2)C(=O)N1C(=O)c1ccc(Cl)cc1`, with 182 to 184 °C; and `Cc1sc2c(Br)c3ccccc3c(-c3cc(Br)c(O)c(NC(=O)OC(C)(C)C)c3)c2c1C`, with 205 to 207 °C; and `CC(C)c1csc(/C=C/c2cccc(NC(=O)Cc3ccccc3CC(=O)O)c2)n1`, with 144 to 146 °C.

In turn, `COc1ccc(C(=O)C2(O)CCCCC2C(=O)NCC(C)C)cc1` (stereo not drawn) had a melting point of 143 to 147 °C.

As to `Cc1c(C2=C(c3cn(C)c4ccccc34)C(=O)NC2=O)c2ccccc2n1C`, the melting point is greater than 290 °C. With `C[C@@H]1CN(CCCn2c3ccc(O)cc3c3c4c(c(-c5ccccc5Cl)cc32)C(=O)NC4=O)C[C@H](C)N1` the figure was 165 to 172 °C.

The molecule `COC(=O)CCn1cc(Cc2cccnc2)c2cc(CCC(=O)O)ccc21` displayed a melting point of 108 to 110 °C. Then `CS(=O)(=O)Nc1cc(Cl)c(C#N)cc1Sc1ccc(F)cc1F`, with 159 to 162 °C; and `Cc1oc(-c2ccccc2)nc1COc1ccc(CCc2nnn[nH]2)cc1`, with 203 to 204 °C. Turning to `CN(C)c1cccc(OC(=O)NC2C(=O)N(CC34CC5CC(CC(C5)C3)C4)c3ccccc3N(c3ccccc3)C2=O)c1` (stereo not drawn), the melting point fell in the range of 130 to 132 °C. Then `OCC(O)C1OC(Sc2ccccc2)C(O)C1O` (stereo not drawn), with 105 to 107 °C; and `COc1cccc2c3c(c(=O)[nH]c12)CCN3c1cccc(C)c1`, with 155 to 157 °C. `Cc1cc(-c2ccccc2)nc(-c2cccc([N+](=O)[O-])c2)c1C(=O)N1CCN(C)CC1` yielded a melting point of 127 to 129 °C. With `CC(=O)Nc1nc2c(s1)-c1c(cnn1C(N)=O)CC2`, the melting point is 265 to 270 °C.

`CC(C)c1ccccc1N1/C(=N\N=C/c2ccc(-c3ncn(-c4ccc(OC(F)(F)F)cc4)n3)cc2)SCC1C` (stereo not drawn) showed a melting point of 201 to 204 °C. `Cc1cc(C)c(Cn2cc(C(=O)C(=O)NC3=CC(=O)OC3)c3ccccc32)c(C)c1` showed a melting point of 288 to 290 °C. Consider `ClC(Cl)(Cl)c1nc(NCc2ccccc2)nc(C(Cl)(Cl)Cl)n1`, for which the melting point is 96.5 to 97 °C. With `COC(=O)Nc1ccc(CN2CCC(C(O)(c3ccc(OC(F)(F)F)cc3)c3ccc(OC(F)(F)F)cc3)CC2)cc1`, the melting point fell in the range of 178 to 182 °C. As for `COC(=O)c1cc(C)cnc1Cl`, the melting point was 31 to 33 °C. Then `CSC(C(N)=O)c1cc(Cl)cc(C(=O)c2ccccc2)c1N` (stereo not drawn), with 174 °C.

Regarding `CC(CO)(CO)NS(=O)(=O)c1cccc(NC(=O)c2cnn3c(C(F)F)cc(-c4ccc(C(F)(F)F)cc4)nc23)c1`, the melting point is 246 °C. In turn, `O=[N+]([O-])CC(O)c1nn(Cc2ccccc2)c2ccccc12` (stereo not drawn) came in with a melting point of 100 to 101 °C. In turn, `O=c1oc2ccccc2c(O)c1[N+](=O)[O-]` had a melting point of 174 °C.

In turn, `Cc1ccc2nc(Cl)c(Cl)nc2c1` gave a melting point of 112 to 115 °C.

As to `CCOC(=O)c1cc2n(C)c3ccc(OC)cc3c(=O)n2n1`, the melting point lay in the range of 249 to 251 °C. Molecule `CCCc1c(OCCCCOc2cccc(Sc3ccc(C(=O)O)cc3)c2)ccc(C(C)=O)c1O` registered a melting point of 100 to 102 °C.

The molecule `COc1cc(C(=O)c2c(C)nn(C)c2O)cc(OC)c1OC` displayed a melting point of 189 to 191 °C. Then `O=C1Nc2ccccc2N(C(=O)N2CCCC(CCCN3CCCC3)C2)c2ncccc21` (stereo not drawn), with 174 to 176 °C; and `COc1ccc(CNC(=O)N(C)O)cc1OC`, with 132 to 133 °C. With `CC(=O)Nc1c(C(=O)c2ccc3ccccc3c2)[nH]c2cc(Cl)ccc12` the figure was 167 to 169 °C.

`O=S(=O)(NCCO)c1c[nH]c(-c2ccc(Cl)cc2)n1` registered a melting point of 210 to 212 °C.

In the case of `COc1ccc(I)cc1C=O`, the melting point lay in the range of 140 to 142 °C. `OC1(C2CCC(c3c(F)cccc3F)=N2)C=CC(c2ccccc2)=CC1` (stereo not drawn): the melting point came out at 217 °C.

For the molecule `Oc1ccc(O)c2c1CCCC2`, the melting point was in the range of 213 to 215 °C. `O=C(NCc1ccc(Cl)cc1)c1cc2c3c(cc(CN4CCOCC4)cn3c1=O)CCC2`: the melting point fell in the range of 200 to 201 °C.

In the case of `O=C(c1ccco1)c1cc([N+](=O)[O-])ccc1Cl`, the melting point lay in the range of 93 to 96 °C. The molecule `Cc1ccc(-c2cn(C)c(-c3ccc(C)s3)n2)s1` displayed a melting point of 138 to 140 °C.

Take `CCC(=O)NC[C@H]1CN(c2ccc3c(c2)CCCc2cn[nH]c2-3)C(=O)O1`: the melting point was in the range of 233 to 235 °C.

In turn, `Cc1ccc(Sc2ncnc3ccccc23)cc1` yielded a melting point of 96 °C. With `CC(C)(NC(=O)C(CO)NC(=O)c1ccccc1)c1ccccc1` (stereo not drawn) the figure was 152 to 153 °C. Take `CCOP(=O)(NC(=O)c1cc(=O)c2ccccc2o1)OCC`: the melting point was in the range of 182 to 183 °C. On to `O=C(Nc1ccc(-n2nc(C(F)(F)F)cc2C(F)(F)F)cc1)c1nc(Cl)ccc1Cl`, for which the melting point lay in the range of 118 to 119 °C.

As to `CC(C)(C)OC(=O)c1sc(Nc2ccc(Cl)cc2)c2c1CCc1cnoc1-2`, the melting point was in the range of 197 to 198 °C. As to `COc1nnc2n1C=Cc1ccccc1C2`, the melting point was 160 to 161 °C. `CCN(CCNS(=O)(=O)c1ccc(C)cc1)C(=O)c1ccccc1C(=O)c1ccc(Cl)cc1`: the melting point lay in the range of 145 to 147 °C.
